{"source": "patent US11389501B1", "about": "“Method for treating eye inflammation using anti-inflammatory composition having bioactive compound” (TCI CO., LTD., priority 2021, dated 2022)", "type_in_all_cases": "cell-based", "key": {"VEGFA gene": {"system": "VEGFA gene", "assay": "qRT-PCR of VEGFA gene expression in blue light-irradiated human retinal pigment epithelial cells", "conditions": "ARPE-19 cells, 0.0125 mg/ml, incubated 24 h, then blue light 15 min; control group = 100%, comparative group (blue light only) 109.47%", "excerpt": "(§1) In the present embodiment, an RNA extraction kit, a reverse transcriptase, and a KAPA SYBR® FAST qPCR reagent kit were used in conjunction with a quantitative PCR instrument to determine the changes in expression level of the genes associated with eye protection and anti-inflammation in human retinal pigment epithelial cells treated with the peptide having the amino acid sequence of SEQ ID NO.: 1. Further, the efficacy of the bioactive compound obtained from the cowhide peptides of the present disclosure in resisting blue light and preventing inflammatory reactions was confirmed.\n(§2) 1. Cell strain: Human retinal pigment epithelial cell ARPE-19 (purchased from ATCC, product number CRL-2302). […]\n(§3) The cell membranes of each group of human retinal pigment epithelial cells (i.e., the control group, the comparative group, and the experimental group) resulted from the cell treatment stage were broken with cell lysates. […] Then the cDNA of each group was subjected to a quantitative real-time reverse transcription polymerase chain reaction (qRT-PCR) using the ABI StepOnePlus™ Real-time PCR system (Thermo Fisher Scientific), KAPA SYBR FAST (Sigma, USA, product number 38220000000) and the primers listed in Table 3 (SEQ 1D NO.: 2 to SEQ ID NO.: 9) to assess the expression of VEGFA gene. […] Gene quantification was performed using a 2^−ΔCt method. […]"}, "IL-1β gene": {"system": "IL-1β gene", "assay": "qRT-PCR of IL-1β gene expression in blue light-irradiated human retinal pigment epithelial cells", "conditions": "ARPE-19 cells, 0.0125 mg/ml, incubated 24 h, then blue light 15 min; control group = 100%, comparative group (blue light only) 109.21%", "excerpt": "as §1, §2, §3"}, "IL-8 gene": {"system": "IL-8 gene", "assay": "qRT-PCR of IL-8 gene expression in blue light-irradiated human retinal pigment epithelial cells", "conditions": "ARPE-19 cells, 0.0125 mg/ml, incubated 24 h, then blue light 15 min; control group = 100%, comparative group (blue light only) 121.77%", "excerpt": "as §1, §2, §3"}}, "data": [{"smiles": "CC(C)C[C@H](NC(=O)[C@H](CO)NC(=O)[C@@H](NC(=O)[C@@H]1CCCN1C(=O)[C@H](CC(C)C)NC(=O)CNC(=O)[C@H](CO)NC(=O)[C@@H]1CCCN1C(=O)[C@H](CC(C)C)NC(=O)[C@H](CCCCN)NC(=O)C(N)C(C)O)C(C)C)C(=O)O", "note": "(stereo partly drawn) [cowhide peptide, TKLPSGLPVSL]", "values": [{"measurement": "expression of VEGFA gene relative to the control group", "setting": "VEGFA gene", "value": 84.07, "unit": "%"}, {"measurement": "expression of IL-1β gene relative to the control group", "setting": "IL-1β gene", "value": 66.36, "unit": "%"}, {"measurement": "expression of IL-8 gene relative to the control group", "setting": "IL-8 gene", "value": 88.29, "unit": "%"}]}]}
